Laboratory results: patent US4628104A, “Imidazole ketone derivatives” (G. D. Searle & Co., priority 1985, dated 1986)
Converted amounts (≈) assume the structure as drawn. Where a name gives a salt, the structure may show the parent alone. Read-outs that look alike come from different tables or passages of the source.

Experiments:
B. fragilis WS-1 = test: Anti-anaerobic activity, microtitre plate broth dilution, strain E; format: cell-based; conditions: Bacteroides fragilis, WS1, 48 h, 48 hours at 37° C., read-out: MIC (Minimum Inhibitory Concentration)
[1] = tested on: B. fragilis MZ-R ATCC 11295; test: Anti-anaerobic activity, microtitre plate broth dilution, strain D; format: cell-based, Bacteroides fragilis; conditions: Bacteroides fragilis, ATCC11295, 48 h, strain D; for MBC: 99.9% reduction in viable count, 48 hours, read-out: MBC (Minimum Bactericidal Concentration); for MIC: 48 hours at 37° C., anaerobic, read-out: MIC (Minimum Inhibitory Concentration)
B. fragilis NCTC 9343 = test: Anti-anaerobic activity, microtitre plate broth dilution, strain B; format: cell-based, Bacteroides fragilis; conditions: Bacteroides fragilis, NCTC9343, 48 h; for MBC: 99.9% reduction in viable count, 48 hours, read-out: MBC (Minimum Bactericidal Concentration); for MIC: 48 hours at 37° C., anaerobic, read-out: MIC (Minimum Inhibitory Concentration)
B. fragilis NCTC 10581 = test: Anti-anaerobic activity, microtitre plate broth dilution, strain A; format: cell-based, Bacteroides fragilis; conditions: Bacteroides fragilis, NCTC10581, 48 h, strain A; for MBC: 99.9% reduction in viable count, 48 hours, read-out: MBC (Minimum Bactericidal Concentration); for MIC: 48 hours at 37° C., anaerobic, read-out: MIC (Minimum Inhibitory Concentration)
B. fragilis NCTC 9344 = test: Anti-anaerobic activity, microtitre plate broth dilution, strain C; format: cell-based; conditions: Bacteroides fragilis, NCTC9344, 48 h; for MBC: 99.9% reduction in viable count, 48 hours, read-out: MBC (Minimum Bactericidal Concentration); for MIC: 48 hours at 37° C., anaerobic, read-out: MIC (Minimum Inhibitory Concentration)
[2] = tested on: Propionibacterium acnes NCTC 737; test: Anti-anaerobic activity, additional strains, strain N; format: cell-based; conditions: Cutibacterium acnes, NCTC737
[3] = tested on: Campylobacter fetus ATCC 29428; test: Anti-anaerobic activity, additional strains, strain I; conditions: ATCC29428
[4] = tested on: Peptostreptococcus anaerobicus ATCC 27337; test: Anti-anaerobic activity, additional strains, strain M; conditions: ATCC27337
Clostridium difficile CI = test: Anti-anaerobic activity, additional strains, strain H; conditions: Clostridioides difficile
[5] = tested on: Peptococcus magnus ATCC 29328; test: Anti-anaerobic activity, additional strains, strain K; format: cell-based; conditions: Finegoldia magna, ATCC29328
[6] = tested on: Propionibacterium acnes NCTC 7337; test: Anti-anaerobic activity, additional strains, strain O; format: cell-based; conditions: Cutibacterium acnes, NCTC7337
[7] = tested on: Fusobacterium necrophorum ATCC 11295; test: Anti-anaerobic activity, additional strains, strain J; format: cell-based
[8] = tested on: Clostridium perfringens NCTC 8237; test: microbe, parasite or virus in culture; format: cell-based; conditions: NCTC8237, strain G
[9] = tested on: Peptococcus prevotti ATCC 9321; test: Anti-anaerobic activity, additional strains, strain L; format: cell-based
[10] = tested on: Clostridium perfringens NCTC 523; test: microbe, parasite or virus in culture; format: cell-based; conditions: NCTC523
[11] = ATCC11295, strain J, read-out: MIC

| SMILES | MIC (B. fragilis WS-1) | MBC [1] | MIC [1] | MBC (B. fragilis NCTC 9343) | MIC (B. fragilis NCTC 9343) | MBC (B. fragilis NCTC 10581) | MIC (B. fragilis NCTC 10581) | MBC (B. fragilis NCTC 9344) | MIC (B. fragilis NCTC 9344) | MIC [3] | MIC [4] | MIC [8] | MIC [9] | MIC [10] | also measured |
| --- | --- | --- | --- | --- | --- | --- | --- | --- | --- | --- | --- | --- | --- | --- | --- |
| Cc1ccc(C(Cn2cncn2)C(=O)c2ccc(Cl)cc2Cl)cc1 (stereo not shown) [Example 16, 1-(2,4-Dichlorophenyl)-2-(4-methylphenyl)-3-(1,2,4-triazol-1-yl)propan-1-one hydrochloride] | 1.5 µg/mL | 15 µg/mL | 0.8 µg/mL | 3.1 µg/mL | 3.1 µg/mL | 3.1 µg/mL | 3.1 µg/mL | 3.1 µg/mL | 3.1 µg/mL |  |  |  |  |  |  |
| O=C(c1ccc(Cl)cc1Cl)C(Cn1ccnc1)c1ccccc1 (stereo not shown) [Example 2, 1-(2,4-Dichlorophenyl)-3-(imidazol-1-yl)-2-phenylpropan-1-one] | 0.8 µg/mL (≈ 2.32 µM) | 0.8 µg/mL (≈ 2.32 µM) | 0.8 µg/mL (≈ 2.32 µM) | 0.8 µg/mL (≈ 2.32 µM) | 0.8 µg/mL (≈ 2.32 µM) | 0.8 µg/mL (≈ 2.32 µM) | 0.8 µg/mL (≈ 2.32 µM) | 0.8 µg/mL (≈ 2.32 µM) | 0.8 µg/mL (≈ 2.32 µM) | 0.8 µg/mL (≈ 2.32 µM) | 0.8 µg/mL (≈ 2.32 µM) | 0.8 µg/mL (≈ 2.32 µM) | 0.8 µg/mL (≈ 2.32 µM) | 0.8 µg/mL (≈ 2.32 µM) | MIC [2]: 0.8 µg/mL (≈ 2.32 µM); MIC (Clostridium difficile CI): 0.8 µg/mL (≈ 2.32 µM); MIC [5]: 0.8 µg/mL (≈ 2.32 µM); MIC [6]: 0.8 µg/mL (≈ 2.32 µM); MIC ([7]; ATCC11295): 0.8 µg/mL (≈ 2.32 µM) |
| CCCCCCCC(=O)C(Cn1ccnc1)c1ccc(C)cc1 (stereo not shown) [Example 17, 1-(Imidazol-1-yl)-2-(4-methylphenyl)decan-3-one hydrochloride] | 12.5 µg/mL | 100 µg/mL | 3.1 µg/mL | 100 µg/mL | 12.5 µg/mL | 100 µg/mL | 12.5 µg/mL |  |  |  |  |  |  |  |  |
| O=C(c1cccnc1)C(Cn1cncn1)c1ccccc1 (stereo not shown) [Example 20, 2-Phenyl-1-(3-pyridyl)-3-(1,2,4-triazol-1-yl)propan-1-one] | 100 µg/mL (≈ 359 µM) |  | 100 µg/mL (≈ 359 µM) |  | 100 µg/mL (≈ 359 µM) |  | 100 µg/mL (≈ 359 µM) |  | 100 µg/mL (≈ 359 µM) |  |  |  |  |  |  |
| O=C(Cc1ccccc1)C(Cn1ccnc1)c1ccccc1 (stereo not shown) [Example 25, 1,3-Diphenyl-4-(imidazol-1-yl)butan-2-one] | 25 µg/mL (≈ 86.1 µM) |  | 12.5 µg/mL (≈ 43 µM) |  | 25 µg/mL (≈ 86.1 µM) |  | 25 µg/mL (≈ 86.1 µM) |  | 25 µg/mL (≈ 86.1 µM) | 25 µg/mL (≈ 86.1 µM) | 1.5 µg/mL (≈ 5.17 µM) | 0.8 µg/mL (≈ 2.76 µM) | 0.8 µg/mL (≈ 2.76 µM) | 0.8 µg/mL (≈ 2.76 µM) | MIC ([2]; strain N, read-out: MIC): 50 µg/mL (≈ 172 µM); MIC (Clostridium difficile CI; strain H): 25 µg/mL (≈ 86.1 µM); MIC ([5]; strain K, read-out: MIC): 6.2 µg/mL (≈ 21.4 µM); MIC [7, 11]: 100 µg/mL (≈ 344 µM) |
| O=C(c1cccnc1)C(Cn1ccnc1)c1ccccc1 (stereo not shown) [Example 19, 3-(Imidazol-1-yl)-2-phenyl-1-(3-pyridyl)propan-1-one] | 6.2 µg/mL (≈ 22.4 µM) | 50 µg/mL (≈ 180 µM) | 12.5 µg/mL (≈ 45.1 µM) | 50 µg/mL (≈ 180 µM) | 12.5 µg/mL (≈ 45.1 µM) | 50 µg/mL (≈ 180 µM) | 12.5 µg/mL (≈ 45.1 µM) | 50 µg/mL (≈ 180 µM) | 12.5 µg/mL (≈ 45.1 µM) |  |  |  |  |  |  |
| O=C(c1cc(Cl)cc(Cl)c1)C(Cn1ccnc1)c1ccccc1 (stereo not shown) [Example 18, 1-(3,5-Dichlorophenyl)-3-(imidazol-1yl)-2-phenyl propan-1-one] | 1.5 µg/mL (≈ 4.34 µM) | 1.5 µg/mL (≈ 4.34 µM) | 0.8 µg/mL (≈ 2.32 µM) | 1.5 µg/mL (≈ 4.34 µM) | 1.5 µg/mL (≈ 4.34 µM) | 1.5 µg/mL (≈ 4.34 µM) | 0.8 µg/mL (≈ 2.32 µM) | 0.8 µg/mL (≈ 2.32 µM) | 0.8 µg/mL (≈ 2.32 µM) | 3.1 µg/mL (≈ 8.98 µM) | 6.2 µg/mL (≈ 18 µM) | 3.1 µg/mL (≈ 8.98 µM) | 3.1 µg/mL (≈ 8.98 µM) | 3.1 µg/mL (≈ 8.98 µM) | MIC ([2]; strain N, read-out: MIC): 6.2 µg/mL (≈ 18 µM); MIC (Clostridium difficile CI; strain H): 1.5 µg/mL (≈ 4.34 µM); MIC [5]: 3.1 µg/mL (≈ 8.98 µM); MIC [6]: 3.1 µg/mL (≈ 8.98 µM); MIC [7, 11]: 6.2 µg/mL (≈ 18 µM) |
